Laboratory results: PubChem BioAssay AID248 (DTP/NCI, 2004)
Several values for one entry are separate records, joined by “and”; a condition that tells them apart may be missing. Equal entries are not always repeated. Inconclusive results and toxic doses are left out.

Test system: L1210 leukemia ip in BDF1 mice, survival T/C
Assay: NCI In Vivo Anticancer Drug Screen. Data for tumor model L1210 Leukemia (intraperitoneal) in B6D2F1 (BDF1) mice
Details: endpoint: mean survival time, higher = longer survival
Summary of the method: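 Transplantable tumor model; survival measured in treated vs vehicle control mice. Value = treated/control.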

[1] = dose: 100.0 mg/kg/injection, schedule: Q01DX009 (ip), vehicle: Klucel (hydroxypropylcellulose) (HPC)
[2] = dose: 100.0 mg/kg/injection, schedule: Q04DX003 (ip), vehicle: Klucel (hydroxypropylcellulose) (HPC)
[3] = dose: 200.0 mg/kg/injection, schedule: Q01DX009 (ip), vehicle: Klucel (hydroxypropylcellulose) (HPC)
[4] = dose: 200.0 mg/kg/injection, schedule: Q04DX003 (ip), vehicle: Klucel (hydroxypropylcellulose) (HPC)
[5] = dose: 400.0 mg/kg/injection, schedule: Q01DX009 (ip), vehicle: Klucel (hydroxypropylcellulose) (HPC)
[6] = dose: 400.0 mg/kg/injection, schedule: Q04DX003 (ip), vehicle: Klucel (hydroxypropylcellulose) (HPC)
[7] = dose: 100.0 mg/kg/injection, schedule: Q01DX009 (ip), vehicle: saline with Tween-80
[8] = dose: 12.5 mg/kg/injection, schedule: Q04DX002 (ip), vehicle: other

O=[N+]([O-])c1c(Cl)c(Cl)cc(Cl)c1Cl
T/C [1]: 102 % of control and 92 % of control | T/C [2]: 93 % of control and 97 % of control | T/C [3]: 106 % of control and 91 % of control | T/C [4]: 101 % of control | T/C [5]: 95 % of control and 92 % of control | T/C [6]: 95 % of control and 100 % of control

C[n+]1ccc(NC(=O)c2ccc(NC(=O)c3ccc(C(=O)Nc4ccc(C(=O)Nc5cc[n+](C)cc5)cc4)cc3)cc2)cc1
T/C (dose: 62.0 mg/kg/injection, schedule: Q01DX Z (ip), vehicle: carboxymethylcellulose (CMC)): 103 % of control | T/C (dose: 100.0 mg/kg/injection, schedule: Q01DX001 (ip), vehicle: other): 97 % of control | T/C [7]: 105 % of control | T/C (dose: 100.0 mg/kg/injection, schedule: Q04DX003 (ip), vehicle: other): 101 % of control | T/C (dose: 125.0 mg/kg/injection, schedule: Q01DX Z (ip), vehicle: carboxymethylcellulose (CMC)): 118 % of control | T/C (dose: 200.0 mg/kg/injection, schedule: Q01DX001 (ip), vehicle: other): 104 % of control | T/C (dose: 200.0 mg/kg/injection, schedule: Q01DX009 (ip), vehicle: saline with Tween-80): 115 % of control | T/C (dose: 200.0 mg/kg/injection, schedule: Q04DX003 (ip), vehicle: other): 103 % of control | T/C (dose: 400.0 mg/kg/injection, schedule: Q01DX001 (ip), vehicle: other): 103 % of control | T/C (dose: 400.0 mg/kg/injection, schedule: Q01DX009 (ip), vehicle: saline with Tween-80): 114 % of control | T/C (dose: 400.0 mg/kg/injection, schedule: Q04DX003 (ip), vehicle: other): 98 % of control | T/C (dose: 500.0 mg/kg/injection, schedule: Q01DX Z (ip), vehicle: carboxymethylcellulose (CMC)): 152 % of control

C(=N\Nc1nc2ccccc2s1)/c1ccncc1
T/C [1]: 106 % of control | T/C [3]: 96 % of control | T/C [5]: 98 % of control

CNC(=O)Nc1c(O)nc(N)[nH]c1=O
T/C (dose: 37.5 mg/kg/injection, schedule: Q01DX001 (ip), vehicle: saline): 97 % of control | T/C (dose: 75.0 mg/kg/injection, schedule: Q01DX001 (ip), vehicle: saline): 103 % of control | T/C (dose: 150.0 mg/kg/injection, schedule: Q01DX001 (ip), vehicle: saline): 105 % of control

CC1(C)Cc2cccc(C=C(C#N)C#N)c2O1
T/C [2]: 106 % of control | T/C [4]: 97 % of control | T/C [6]: 113 % of control

O=C=Nc1ccc(C(=O)c2ccccc2)cc1
T/C (dose: 20.0 mg/kg/injection, schedule: Q01DX009 (ip), vehicle: saline with Tween-80): 93 % of control | T/C (dose: 40.0 mg/kg/injection, schedule: Q01DX009 (ip), vehicle: saline with Tween-80): 93 % of control | T/C (dose: 80.0 mg/kg/injection, schedule: Q01DX009 (ip), vehicle: saline with Tween-80): 90 % of control | T/C (dose: 160.0 mg/kg/injection, schedule: Q01DX009 (ip), vehicle: saline with Tween-80): 90 % of control | T/C (dose: 320.0 mg/kg/injection, schedule: Q01DX009 (ip), vehicle: saline with Tween-80): 93 % of control

O=C1C=CC(=O)N1c1ccc(Br)c(Cl)c1
T/C [8]: 121 % of control | T/C (dose: 25.0 mg/kg/injection, schedule: Q04DX002 (ip), vehicle: other): 105 % of control | T/C (dose: 50.0 mg/kg/injection, schedule: Q04DX002 (ip), vehicle: other): 112 % of control

C[n+]1ccccc1/C=N/Nc1ccccc1
T/C (dose: 75.0 mg/kg/injection, schedule: Q01DX001 (ip), vehicle: other): 96 % of control

O=C(CC(O)(C(F)(F)F)C(F)(F)F)c1cccs1
T/C (dose: 50.0 mg/kg/injection, schedule: Q01DX009 (ip), vehicle: saline with Tween-80): 109 % of control | T/C (dose: 50.0 mg/kg/injection, schedule: Q04DX003 (ip), vehicle: saline with Tween-80): 98 % of control | T/C [7]: 102 % of control | T/C (dose: 100.0 mg/kg/injection, schedule: Q04DX003 (ip), vehicle: saline with Tween-80): 98 % of control | T/C (dose: 200.0 mg/kg/injection, schedule: Q04DX003 (ip), vehicle: saline with Tween-80): 96 % of control

CCCCCCOC(=O)C(N)Cc1ccc(O)c(N(CCCl)CCCl)c1 (configuration not stated)
T/C (dose: 0.01 mg/kg/injection, schedule: Q01DX009 (ip), vehicle: saline): 123 % of control | T/C (dose: 0.12 mg/kg/injection, schedule: Q01DX001 (ip), vehicle: saline): 159 % of control | T/C (dose: 0.3 mg/kg/injection, schedule: Q01DX009 (ip), vehicle: saline): 163 % of control | T/C (dose: 0.5 mg/kg/injection, schedule: Q01DX001 (ip), vehicle: saline): 313 % of control | T/C (dose: 0.6 mg/kg/injection, schedule: Q01DX009 (ip), vehicle: saline): 221 % of control | T/C (dose: 1.0 mg/kg/injection, schedule: Q01DX001 (ip), vehicle: saline): 120 % of control | T/C (dose: 1.1 mg/kg/injection, schedule: Q01DX009 (ip), vehicle: saline): 210 % of control | T/C (dose: 2.2 mg/kg/injection, schedule: Q01DX001 (ip), vehicle: saline): 198 % of control | T/C (dose: 2.5 mg/kg/injection, schedule: Q01DX001 (ip), vehicle: saline): 163 % of control | T/C (dose: 3.3 mg/kg/injection, schedule: Q01DX001 (ip), vehicle: saline): 153 % of control | T/C (dose: 5.0 mg/kg/injection, schedule: Q01DX001 (ip), vehicle: saline): 157 % of control and 236 % of control | T/C (dose: 1.0 micrograms/kg/injection, schedule: Q01DX009 (ip), vehicle: saline): 104 % of control | T/C (dose: 8.0 micrograms/kg/injection, schedule: Q01DX009 (ip), vehicle: saline): 189 % of control

O=C(CCCC(=O)N/N=C/c1ccc(-c2ccccc2)cc1)N/N=C\c1ccc(-c2ccccc2)cc1
T/C (dose: 50.0 mg/kg/injection, schedule: Q01DX001 (ip), vehicle: saline): 96 % of control | T/C (dose: 100.0 mg/kg/injection, schedule: Q01DX001 (ip), vehicle: saline): 98 % of control | T/C (dose: 200.0 mg/kg/injection, schedule: Q01DX001 (ip), vehicle: saline): 96 % of control | T/C (dose: 400.0 mg/kg/injection, schedule: Q01DX001 (ip), vehicle: saline): 96 % of control

COc1ccc2c(c1)N(CCC1CCCCN1C)c1ccccc1S2 (configuration not stated)
T/C (dose: 3.12 mg/kg/injection, schedule: Q01DX009 (ip), vehicle: saline): 108 % of control and 121 % of control | T/C (dose: 6.25 mg/kg/injection, schedule: Q01DX009 (ip), vehicle: saline): 105 % of control and 118 % of control | T/C (dose: 6.25 mg/kg/injection, schedule: Q04DX003 (ip), vehicle: saline): 107 % of control | T/C (dose: 12.5 mg/kg/injection, schedule: Q01DX009 (ip), vehicle: saline): 111 % of control | T/C (dose: 12.5 mg/kg/injection, schedule: Q04DX003 (ip), vehicle: saline): 106 % of control | T/C (dose: 25.0 mg/kg/injection, schedule: Q01DX009 (ip), vehicle: saline): 117 % of control | T/C (dose: 25.0 mg/kg/injection, schedule: Q04DX003 (ip), vehicle: saline): 117 % of control and 122 % of control | T/C (dose: 50.0 mg/kg/injection, schedule: Q04DX003 (ip), vehicle: saline): 114 % of control and 117 % of control

Nc1cccc(OCCCCCOc2cccc(N)c2)c1
T/C [1]: 93 % of control | T/C [3]: 96 % of control

O=C(NNS(=O)(=O)c1ccccc1)C1Oc2ccccc2O1
T/C (dose: 25.0 mg/kg/injection, schedule: Q04DX002 (ip), vehicle: Klucel (hydroxypropylcellulose) (HPC)): 96 % of control | T/C (dose: 50.0 mg/kg/injection, schedule: Q04DX002 (ip), vehicle: Klucel (hydroxypropylcellulose) (HPC)): 93 % of control | T/C (dose: 100.0 mg/kg/injection, schedule: Q04DX002 (ip), vehicle: Klucel (hydroxypropylcellulose) (HPC)): 101 % of control

Brc1cc(Cc2c(Br)csc2Br)c(Br)s1
T/C (dose: 100.0 mg/kg/injection, schedule: Q04DX002 (ip), vehicle: saline with Tween-80): 101 % of control | T/C (dose: 200.0 mg/kg/injection, schedule: Q04DX002 (ip), vehicle: saline with Tween-80): 101 % of control | T/C (dose: 400.0 mg/kg/injection, schedule: Q04DX002 (ip), vehicle: saline with Tween-80): 101 % of control

CCC(CC)=NNC(N)=O
T/C (dose: 25.0 mg/kg/injection, schedule: Q04DX003 (ip), vehicle: Klucel (hydroxypropylcellulose) (HPC)): 104 % of control | T/C (dose: 50.0 mg/kg/injection, schedule: Q04DX003 (ip), vehicle: Klucel (hydroxypropylcellulose) (HPC)): 100 % of control | T/C [2]: 103 % of control and 104 % of control

c1ccc2c(C(CCN3CCCCC3)CNC3=NCCN3)cccc2c1 (configuration not stated)
T/C (dose: 5.0 mg/kg/injection, schedule: Q04DX003 (ip), vehicle: saline with Tween-80): 96 % of control | T/C (dose: 10.0 mg/kg/injection, schedule: Q04DX003 (ip), vehicle: saline with Tween-80): 105 % of control | T/C (dose: 20.0 mg/kg/injection, schedule: Q04DX003 (ip), vehicle: saline with Tween-80): 98 % of control

CCN(CC)C(=O)CSC#N
T/C (dose: 6.25 mg/kg/injection, schedule: Q04DX002 (ip), vehicle: other): 88 % of control | T/C [8]: 103 % of control
